Test results reported in patent publication US20260085077A1, “HETEROCYCLIC DERIVATIVES AS JANUS KINASE INHIBITORS” (CHIESI FARMACEUTICI S.P.A., priority 2022, published 2026).

Test system: IL-13 induced pSTAT6 in BEAS-2B human cell line
Test: Inhibition of IL-13 induced pSTAT6 in BEAS
Format: cell-based
Details: IL-13 induced pSTAT6, BEAS-2B cells, ELISA
Description: BEAS-2B human cell line was seeded (100.000 cells/well) and incubated for 48 h at 37° C., 5% CO2, 95% humidity. Compounds were added and incubated 30 min followed by IL-13 as trigger. After 30 min incubation, cells were lysed and pSTAT6 determined by Fastscan phospho-stat6 (Tyr641) sandwich ELISA kit (cell signaling). Inhibitors were tested at 11 consecutive […] dilutions starting from 10 μM (10 μM-40 pM) in duplicate. Calculation of IC50 data, curves and QC analysis were made using Excel tools and GraphPadPrism software. QC criteria parameters: Z′≥0.35, Hill Slope range 0.5 to 5, S:B>2.

| SMILES | IC50 |
| --- | --- |
| COc1cc2c(cc1-n1nc(NC(=O)OCCN3CCOCC3)c3cnc(-c4cnn5cccnc45)cc31)SCCN2 [Example 29, 2-morpholinoethyl (1-(6-methoxy-3,4-dihydro-2H-benzo[b][1,4]thiazin-7-yl)-6-(pyrazolo[1,5-a]pyrimidin-3-yl)-1H-pyrazolo[4,3-c]pyridin-3-yl)carbamate] | < 5.01 nM |
| COc1cc2c(cc1-n1nc(NC(=O)OCCCN3CCN(C)CC3)c3cnc(-c4cnn5cccnc45)cc31)SCCN2 [Example 30, 3-(4-methylpiperazin-1-yl)propyl (1-(6-methoxy-3,4-dihydro-2H-benzo[b][1,4]thiazin-7-yl)-6-(pyrazolo[1,5-a]pyrimidin-3-yl)-1H-pyrazolo[4,3-c]pyridin-3-yl)carbamate] | 5.01 to 50.1 nM |
| COc1cc2c(cc1-n1nc(NC(=O)OCCN3CCCCC3)c3cnc(-c4cnn5cccnc45)cc31)SCCN2 [Example 31, 2-(piperidin-1-yl)ethyl (1-(6-methoxy-3,4-dihydro-2H-benzo[b][1,4]thiazin-7-yl)-6-(pyrazolo[1,5-a]pyrimidin-3-yl)-1H-pyrazolo[4,3-c]pyridin-3-yl)carbamate] | 5.01 to 50.1 nM |
| COc1cc2c(cc1-n1nc(NC(=O)O[C@@H]3CCN(C)C3)c3cnc(-c4cnn5cccnc45)cc31)SCCN2 [Example 32, (R)-1-methylpyrrolidin-3-yl (1-(6-methoxy-3,4-dihydro-2H-benzo[b][1,4]thiazin-7-yl)-6-(pyrazolo[1,5-a]pyrimidin-3-yl)-1H-pyrazolo[4,3-c]pyridin-3-yl)carbamate] | 5.01 to 50.1 nM |
| COc1cc2c(cc1-n1nc(NC(=O)O[C@H]3CCN(C)C3)c3cnc(-c4cnn5cccnc45)cc31)SCCN2 [Example 33, (S)-1-methylpyrrolidin-3-yl (1-(6-methoxy-3,4-dihydro-2H-benzo[b][1,4]thiazin-7-yl)-6-(pyrazolo[1,5-a]pyrimidin-3-yl)-1H-pyrazolo[4,3-c]pyridin-3-yl)carbamate] | 5.01 to 50.1 nM |
| COc1cc2c(cc1-n1nc(NC(=O)OCC3(N(C)C)CCOCC3)c3cnc(-c4cnn5cccnc45)cc31)SCCN2 [Example 34, (4-(dimethylamino)tetrahydro-2H-pyran-4-yl)methyl (1-(6-methoxy-3,4-dihydro-2H-benzo[b][1,4]thiazin-7-yl)-6-(pyrazolo[1,5-a]pyrimidin-3-yl)-1H-pyrazolo[4,3-c]pyridin-3-yl)carbamate] | 5.01 to 50.1 nM |
| COc1cc2c(cc1-n1nc(NC(=O)OCCN3CC[C@@H](OC)C3)c3cnc(-c4cnn5cccnc45)cc31)SCCN2 [Example 35, (R)-2-(3-methoxypyrrolidin-1-yl)ethyl (1-(6-methoxy-3,4-dihydro-2H-benzo[b][1,4]thiazin-7-yl)-6-(pyrazolo[1,5-a]pyrimidin-3-yl)-1H-pyrazolo[4,3-c]pyridin-3-yl)carbamate] | 5.01 to 50.1 nM |
| COc1cc2c(cc1-n1nc(NC(=O)N(C)C)c3cnc(-c4cnn5cccnc45)cc31)SCCN2 [Example 36, 3-(1-(6-methoxy-3,4-dihydro-2H-benzo[b][1,4]thiazin-7-yl)-6-(pyrazolo[1,5-a]pyrimidin-3-yl)-1H-pyrazolo[4,3-c]pyridin-3-yl)-1,1-dimethylurea] | < 5.01 nM |
| COc1cc2c(cc1-n1nc(NCCN3CCN(C)CC3)c3cnc(-c4cnn5cccnc45)cc31)SCC(=O)N2 [Example 37] | 5.01 to 50.1 nM |
| COc1cc2c(cc1-n1nc(NCCN(C)C)c3cnc(-c4cnn5cccnc45)cc31)SCC(=O)N2 [Example 38, 7-(3-((2-(dimethylamino)ethyl)amino)-6-(pyrazolo[1,5-a]pyrimidin-3-yl)-1H-pyrazolo[4,3-c]pyridin-1-yl)-6-methoxy-2H-benzo[b][1,4]thiazin-3(4H)-one] | 5.01 to 50.1 nM |
| COc1cc2sncc2cc1-n1nc(NCCN2CCOCC2)c2cnc(-c3cnn4cccnc34)cc21 [Example 39, 1-(6-methoxybenzo[d]isothiazol-5-yl)-N-(2-morpholinoethyl)-6-(pyrazolo[1,5-a]pyrimidin-3-yl)-1H-pyrazolo[4,3-c]pyridin-3-amine] | 5.01 to 50.1 nM |
| COc1cc2c(cc1-n1nc(C)c3cnc(-c4cnn5cccnc45)cc31)OCCN2 [Example 40, 6-methoxy-7-(3-methyl-6-(pyrazolo[1,5-a]pyrimidin-3-yl)-1H-pyrazolo[4,3-c]pyridin-1-yl)-3,4-dihydro-2H-benzo[b][1,4]oxazine] | 5.01 to 50.1 nM |
| COc1cc2c(cc1-n1nc(C)c3cnc(-c4cnn5cccnc45)cc31)CCN2 [Example 41, 1-(6-methoxyindolin-5-yl)-3-methyl-6-(pyrazolo[1,5-a]pyrimidin-3-yl)-1H-pyrazolo[4,3-c]pyridine] | 5.01 to 50.1 nM |
| COc1cc2c(cc1-n1nc(C)c3cnc(-c4cnn5cccnc45)cc31)CCCN2 [Example 42, 7-methoxy-6-(3-methyl-6-(pyrazolo[1,5-a]pyrimidin-3-yl)-1H-pyrazolo[4,3-c]pyridin-1-yl)-1,2,3,4-tetrahydroquinoline] | < 5.01 nM |
| COc1cc2c(cc1-n1nc(C(=O)NCCCN(C)C)c3cnc(-c4cnn5cccnc45)cc31)OCCN2 [Example 43, N-(3-(dimethylamino)propyl)-1-(6-methoxy-3,4-dihydro-2H-benzo[b][1,4]oxazin-7-yl)-6-(pyrazolo[1,5-a]pyrimidin-3-yl)-1H-pyrazolo[4,3-c]pyridine-3-carboxamide] | 5.01 to 50.1 nM |
| COc1cc2c(cc1-n1nc(C(=O)NC3CN(C)C3)c3cnc(-c4cnn5cccnc45)cc31)OCCN2 [Example 44, 1-(6-methoxy-3,4-dihydro-2H-benzo[b][1,4]oxazin-7-yl)-N-(1-methylazetidin-3-yl)-6-(pyrazolo[1,5-a]pyrimidin-3-yl)-1H-pyrazolo[4,3-c]pyridine-3-carboxamide] | 5.01 to 50.1 nM |
| COc1cc2c(cc1-n1nc(C(=O)NC[C@@H]3CN(C)CCO3)c3cnc(-c4cnn5cccnc45)cc31)OCCN2 [Example 45, (R)-1-(6-methoxy-3,4-dihydro-2H-benzo[b][1,4]oxazin-7-yl)-N-((4-methylmorpholin-2-yl)methyl)-6-(pyrazolo[1,5-a]pyrimidin-3-yl)-1H-pyrazolo[4,3-c]pyridine-3-carboxamide] | 5.01 to 50.1 nM |
| COc1cc2c(cc1-n1nc(C(=O)NCCN3CCC(OC)CC3)c3cnc(-c4cnn5cccnc45)cc31)OCCN2 [Example 46, 1-(6-methoxy-3,4-dihydro-2H-benzo[b][1,4]oxazin-7-yl)-N-(2-(4-methoxypiperidin-1-yl)ethyl)-6-(pyrazolo[1,5-a]pyrimidin-3-yl)-1H-pyrazolo[4,3-c]pyridine-3-carboxamide] | < 5.01 nM |
| COCC1CCN(CCNC(=O)c2nn(-c3cc4c(cc3OC)NCCO4)c3cc(-c4cnn5cccnc45)ncc23)CC1 [Example 47, 1-(6-methoxy-3,4-dihydro-2H-benzo[b][1,4]oxazin-7-yl)-N-(2-(4-(methoxymethyl)piperidin-1-yl)ethyl)-6-(pyrazolo[1,5-a]pyrimidin-3-yl)-1H-pyrazolo[4,3-c]pyridine-3-carboxamide] | 5.01 to 50.1 nM |
| COc1cc2c(cc1-n1nc(C(=O)NCCN3CC4(CCOCC4)C3)c3cnc(-c4cnn5cccnc45)cc31)OCCN2 [Example 48, N-(2-(7-oxa-2-azaspiro[3.5]nonan-2-yl)ethyl)-1-(6-methoxy-3,4-dihydro-2H-benzo[b][1,4]oxazin-7-yl)-6-(pyrazolo[1,5-a]pyrimidin-3-yl)-1H-pyrazolo[4,3-c]pyridine-3-carboxamide] | < 5.01 nM |
| COc1cc2c(cc1-n1nc(C(=O)NCCN3CCCC4(COC4)C3)c3cnc(-c4cnn5cccnc45)cc31)OCCN2 [Example 49, N-(2-(2-oxa-6-azaspiro[3.5]nonan-6-yl)ethyl)-1-(6-methoxy-3,4-dihydro-2H-benzo[b][1,4]oxazin-7-yl)-6-(pyrazolo[1,5-a]pyrimidin-3-yl)-1H-pyrazolo[4,3-c]pyridine-3-carboxamide] | 5.01 to 50.1 nM |
| COc1cc2c(cc1-n1nc(C(=O)NCCN3C[C@H]4COC(=O)[C@H]4C3)c3cnc(-c4cnn5cccnc45)cc31)OCCN2 [Example 50, 1-(6-methoxy-3,4-dihydro-2H-benzo[b][1,4]oxazin-7-yl)-N-(2-((3aS,6aR)-1-oxotetrahydro-1H-furo[3,4-c]pyrrol-5(3H)-yl)ethyl)-6-(pyrazolo[1,5-a]pyrimidin-3-yl)-1H-pyrazolo[4,3-c]pyridine-3-carboxamide] | 5.01 to 50.1 nM |
| COc1cc2c(cc1-n1nc(C(=O)NCCN3CCC4(CC3)COC(=O)C4)c3cnc(-c4cnn5cccnc45)cc31)OCCN2 [Example 51, 1-(6-methoxy-3,4-dihydro-2H-benzo[b][1,4]oxazin-7-yl)-N-(2-(3-oxo-2-oxa-8-azaspiro[4.5]decan-8-yl)ethyl)-6-(pyrazolo[1,5-a]pyrimidin-3-yl)-1H-pyrazolo[4,3-c]pyridine-3-carboxamide] | < 5.01 nM |
| COc1cc2c(cc1-n1nc(C(=O)NCCN3CCC4(CCOC4=O)CC3)c3cnc(-c4cnn5cccnc45)cc31)OCCN2 [Example 52, 1-(6-methoxy-3,4-dihydro-2H-benzo[b][1,4]oxazin-7-yl)-N-(2-(1-oxo-2-oxa-8-azaspiro[4.5]decan-8-yl)ethyl)-6-(pyrazolo[1,5-a]pyrimidin-3-yl)-1H-pyrazolo[4,3-c]pyridine-3-carboxamide] | < 5.01 nM |
| COc1cc2c(cc1-n1nc(C(=O)NCCN3CCC(C(=O)N(C)C)CC3)c3cnc(-c4cnn5cccnc45)cc31)OCCN2 [Example 53, N-(2-(4-(dimethylcarbamoyl)piperidin-1-yl)ethyl)-1-(6-methoxy-3,4-dihydro-2H-benzo[b][1,4]oxazin-7-yl)-6-(pyrazolo[1,5-a]pyrimidin-3-yl)-1H-pyrazolo[4,3-c]pyridine-3-carboxamide] | 5.01 to 50.1 nM |
| COc1cc2c(cc1-n1nc(NCCN(C)C)c3cnc(-c4cnn5cccnc45)cc31)OCCN2 [Example 54, N1-(1-(6-methoxy-3,4-dihydro-2H-benzo[b][1,4]oxazin-7-yl)-6-(pyrazolo[1,5-a]pyrimidin-3-yl)-1H-pyrazolo[4,3-c]pyridin-3-yl)-N2,N2-dimethylethane-1,2-diamine] | 5.01 to 50.1 nM |
